{
  "source": "patent US11517554B2",
  "about": "“Method for preventing or treating Alzheimer's disease” (OLATEC THERAPEUTICS LLC, priority 2018, dated 2022)",
  "key": {"pro-IL-1": {"test_system": "pro-IL-1", "test": "In vitro screening: inhibition of pro-IL-1", "assay_type": "cell-based", "procedure": "(§1) To investigate potential off-target activity of dapansutrile, secondary pharmacological effects were assessed through in vitro screening assays. […] An evaluation of 68 critical transmembrane and soluble receptors, ion channels and monoamine transporters were performed for off-target effects of dapansutrile. An additional 69 receptors and enzymes were evaluated with dapansutrile for potential activity in a follow-on study that focused on enzymes involved in inflammatory cascades. A single identified target, the PDE4 enzyme, was inhibited in a concentration range of ≥100 μM (13 μg/mL) and was dose-responsive for effect, but subsequent studies were not conclusive."}, "[1]": {"test_system": "68 critical transmembrane and soluble receptors, ion channels and monoamine transporters; additional 69 receptors and enzymes", "test": "Off-target screening panels (68 receptors, ion channels, monoamine transporters; additional 69 receptors and enzymes)", "details": "all targets other than PDE4", "procedure": "as §1"}, "[2]": {"test_system": "NLRC4 inflammasome pathway", "test": "In vitro screening: cytokine production via NLRC4 inflammasome pathway", "assay_type": "cell-based"}, "[3]": {"test_system": "AIM2 inflammasome pathway", "test": "In vitro screening: cytokine production via AIM2 inflammasome pathway", "assay_type": "cell-based"}, "APP/PS1 mice [4]": {"test_system": "APP/PS1 mice", "test": "Cytokine levels of brain homogenates of APP/PS1 mice (ELISA)", "assay_type": "in vivo", "details": "3 months, vs control food", "procedure": "(§2) In the study design, 6-month-old wild-type (WT), and AD transgenic APP/PS1[deltaE9] mice were treated with oral dapansutrile via feed pellets ad libitum (approximately 0, 50 or 100 mg/kg/day based on feed concentrations of 0, 3.75 or 7.5 g/kg and food consumption of 4 g/day) for the treatment duration of 3 months. At 9 months old, behavior testing of the mice was performed. In addition, the brains of the mice were extracted, and blood samples were collected. The brains of the mice from each group were performed for electrophysiological and neuronal morphological analysis, cytokine levels and other assays.\nOne hemisphere of each mouse was homogenized in STKM-buffer and centrifuged for 10 min at 4° C. with 13,000 g. The supernatant of the brain lysate was collected and measured for pro-inflammatory mediators IL-6 and IL-1β by ELISA by diluting the sample 1:2. […] The IL-1β levels were reduced in APP/PS1 mice treated with dapansutrile at a low dose (500 mg/kg/day, p value=0.0287) and a medium dose (1000 mg/kg/day, p value=0.0368) compared to APP/PS1 mice fed with control food (FIG. 2B)"}, "opioid receptors": {"test_system": "opioid receptors", "test": "Off-target screening: opioid receptors", "assay_type": "binding", "details": "screening assay", "procedure": "as §1"}, "IL-1β challenged mice": {"test_system": "IL-1β challenged mice", "test": "IL-6 and MPO levels after IL-1β intraperitoneal challenge in treated mice (ELISA)", "assay_type": "in vivo", "details": "200 mg/kg, 8 injections over 4 days", "procedure": "Mice were treated with 200 mg/kg dapansutrile (OLT1177™) for 8 injections over 4 days. Mice were trained on a rotarod on day 3. Twelve hours after the last injection, mice were run on the rotarod for distance. One hour after the rotarod, mice were challenged with 60 ng IL-1β intraperitoneally; mice were then sacrificed 4 hours later. Whole blood, plasma, brain, and lung of the mice were collected. Whole blood was cultured, plasma was frozen. Brain was processed for cytokine analysis. Each group had N=5. Ex vivo samples were obtained from the brain of mice treated with vehicle or dapansutrile and subjected to exhaustive exercise."}, "COX-2": {"molecular_target": "T1, COX-2 (Homo sapiens, UniProt P35354)", "T1 sequence (P35354 18-604)": "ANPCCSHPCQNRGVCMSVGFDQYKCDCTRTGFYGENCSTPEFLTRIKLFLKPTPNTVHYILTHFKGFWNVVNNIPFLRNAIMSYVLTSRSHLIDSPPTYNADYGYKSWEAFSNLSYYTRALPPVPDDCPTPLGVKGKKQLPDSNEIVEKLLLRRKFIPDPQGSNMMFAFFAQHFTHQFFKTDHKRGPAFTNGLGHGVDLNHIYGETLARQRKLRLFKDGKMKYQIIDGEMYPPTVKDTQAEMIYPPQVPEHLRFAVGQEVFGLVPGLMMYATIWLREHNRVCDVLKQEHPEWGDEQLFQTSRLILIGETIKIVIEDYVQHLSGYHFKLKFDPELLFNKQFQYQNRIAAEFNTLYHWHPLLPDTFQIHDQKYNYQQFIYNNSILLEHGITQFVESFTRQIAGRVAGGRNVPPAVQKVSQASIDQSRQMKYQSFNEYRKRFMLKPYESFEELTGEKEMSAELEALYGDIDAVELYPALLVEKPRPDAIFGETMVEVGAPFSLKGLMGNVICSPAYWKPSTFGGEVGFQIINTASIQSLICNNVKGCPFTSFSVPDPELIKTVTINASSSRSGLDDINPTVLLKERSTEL", "test": "Off-target screening: COX-2", "assay_type": "biochemical", "details": "screening assay", "procedure": "as §1"}, "[5]": {"test_system": "APP/PS1 mice hippocampal slices, Schaffer collateral CA3 to CA1 pathway", "test": "Long-term potentiation (LTP) in acute hippocampal slices of APP/PS1 mice", "assay_type": "in vivo", "details": "for normalized mean LTP of last 5 minutes of recording: APP/PS1 mice, 55-60 min after TBS, APP/PS1 untreated 1.303, wildtype 1.553", "procedure": "as §2\nGiven the observed recovery in the impaired learning and memory processes in APP/PS1 mice treated with 1000 mg/kg/day dapansutrile (Example 5), we were interested in determining whether hippocampal network function would be recovered following medium dose of dapansutrile administration. For this purpose, we analyzed synaptic plasticity at the Schaffer collateral pathway connecting the CA3 with the CA1 subfield, one of the most extensively studied synapses in the central nervous system. Long-term potentiation (LTP) as a cellular correlation of learning processes at the Schaffer collateral CA3 to CA1 pathway was induced by theta-burst stimulation (TBS) after 20 min of baseline recording.\nAcute hippocampal slices were prepared from mice in four groups including wild-type, APP/PS1, APP/PS1 treated with 500 mg/kg/day and APP/PS1 treated with 1000 mg/kg/day of dapansutrile. Briefly, mice were deeply anesthetized with 100% CO2, killed, and then brains were quickly removed and transferred into ice-cold carbogenated (95% O2 and 5% CO2) artificial CSF (ACSF) solution. Afterward, the hippocampus was dissected and transverse hippocampal slices (400 μm) were obtained using a manual tissue chopper. The hippocampal slices were transferred to an interface recording chamber, where they were incubated at 32° C. with a constant flow rate (0.5 ml/min) of carbogenated ACSF for 2 h before the start of recordings. Field excitatory post synaptic potentials (fEPSPs) were recorded in the stratum radiatum of the CA1 region in hippocampal slices. Responses were evoked by stimulation of the Schaffer collateral pathway using two electrodes. These stimulation electrodes (S1 and S2) were positioned equidistantly on both sides of the recording electrode and, by this means, two independent stimulation pathways could be used for the same CA1 recording region. For recording fEPSPs (measured as the first slope function), the recording electrode was placed in the CA1 apical dendritic layer and signals were amplified by a differential amplifier and digitized. […] The slope of fEPSPs was measured over time for 60 min and normalized to the baseline. […]"}, "APP/PS1 mice [6]": {"test_system": "APP/PS1 mice", "test": "Morris water maze test in APP/PS1 mice", "assay_type": "in vivo", "procedure": "as §2\nSpatial memory formation and retention were assessed using the Morris water maze (MWM) assay. A 10 cm escape platform was submerged 1 cm below the water surface into a circular plastic pool filled up with opaque water. Three visual cues were positioned on the walls around the pool. A digital camera was installed above the center of the maze. Images will be acquired and transmitted to a PC running the tracking software ANY-maze (ANY-maze). On the first three days (pre-training) the mice were trained using a visible platform (the platform was placed above the water surface).\nTo assess spatial memory formation, the mice were trained to locate the hidden platform for 8 consecutive days. The escape latency of each trial (4 per day with an interval of 3-5 min) was recorded and analyzed by the tracking software. At training day 3 and at day 9, memory retention was assessed in a probe trial performed by removing the platform and analyzing the search pattern used by each mouse for a fixed time of 45 seconds.\nThe escape latency which describes the time mice need to find the hidden platform was measured and was analyzed as the mean value of the 4 trials each day and shown in FIG. 3A; all genotypes decreased the escape latency from day 1 to day 8. For example, on day 5, wildtype mice (N=8) needed 23.59±4.08 seconds to reach the platform. APP/PS1 (500 mg/kg/day dapansutrile treated) mice (N=5) needed 37.31±4.96 seconds, and APP/PS1 (1000 mg/kg dapansutrile treated) mice (N=6) needed 21.30±3.19 seconds (p value=0.021), compared to APP/PS1 (control food) mice (n=6) needed 42.04±6.89 seconds.\nTo provide the evidence for cognitive learning 24 hours after the last training session, a reverence test was performed (probe trial) on training day 9. Here, mice were tested in the water maze without the platform to escape and the time was measured in which quadrant the mice spend their time. We compare the mean time in percentage of the three non-target quadrants (NT) to the time in percentage of the target quadrant (TQ, platform was located during training period). […] Whereas there was no preference for a TQ over NT in APP/PS1 (control food) and APP/PS1 500 mg/kg/day (low dose)."}, "PDE4 enzyme": {"test_system": "PDE4 enzyme", "test": "Off-target screening: PDE4 enzyme inhibition", "assay_type": "biochemical", "procedure": "as §1"}, "COX-1": {"molecular_target": "COX-1 (Homo sapiens, UniProt P23219)", "sequence (P23219 24-599)": "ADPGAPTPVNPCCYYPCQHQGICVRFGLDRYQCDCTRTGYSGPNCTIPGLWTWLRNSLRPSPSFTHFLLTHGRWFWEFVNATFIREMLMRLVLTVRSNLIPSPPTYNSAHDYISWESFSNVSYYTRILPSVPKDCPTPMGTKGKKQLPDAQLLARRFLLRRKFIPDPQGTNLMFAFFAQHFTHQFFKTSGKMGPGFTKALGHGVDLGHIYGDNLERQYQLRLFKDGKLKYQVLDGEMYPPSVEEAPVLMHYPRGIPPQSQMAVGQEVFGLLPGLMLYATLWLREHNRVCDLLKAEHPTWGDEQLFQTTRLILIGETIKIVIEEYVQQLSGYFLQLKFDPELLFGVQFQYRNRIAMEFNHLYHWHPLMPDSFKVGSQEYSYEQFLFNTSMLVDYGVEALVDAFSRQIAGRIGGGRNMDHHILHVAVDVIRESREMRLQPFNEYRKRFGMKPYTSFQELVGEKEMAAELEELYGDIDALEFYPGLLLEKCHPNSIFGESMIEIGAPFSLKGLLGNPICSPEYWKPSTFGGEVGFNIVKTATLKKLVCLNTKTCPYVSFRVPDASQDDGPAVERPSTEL", "test": "Off-target screening: COX-1", "assay_type": "biochemical", "details": "screening assay", "procedure": "as §1"}, "pro-IL-18": {"test_system": "pro-IL-18", "test": "In vitro screening: inhibition of pro-IL-18", "assay_type": "cell-based", "procedure": "as §1"}, "[7]": {"details": "exhaustive exercise, 60 ng IL-1β i.p., 4 hours later, vs vehicle"}},
  "data": [
    {"smiles": "CS(=O)(=O)CCC#N", "note": "[dapansutrile, 3-Methanesulfonylpropionitrile]", "values": [
      {"measurement": "inhibition of pro-IL-1", "setting": "pro-IL-1", "value": "no inhibition"},
      {"measurement": "other effects in the screening assays", "setting": "[1]", "value": "No other effects were noted"},
      {"measurement": "inhibitory effect on cytokine production via the NLRC4 inflammasome pathway", "setting": "[2]", "value": "no inhibitory effect"},
      {"measurement": "inhibitory effect on cytokine production via the AIM2 inflammasome pathway", "setting": "[3]", "value": "no inhibitory effect"},
      {"measurement": "IL-1β levels in brain lysate", "setting": "APP/PS1 mice [4]; 500 mg/kg/day oral via feed, p value=0.0287", "value": "reduced"},
      {"measurement": "IL-6 levels in brain lysate", "setting": "APP/PS1 mice [4]; 1000 mg/kg/day oral via feed, p value=0.0035", "value": "reduced"},
      {"measurement": "IL-1β levels in brain lysate", "setting": "APP/PS1 mice [4]; 1000 mg/kg/day oral via feed, p value=0.0368", "value": "reduced"},
      {"measurement": "interaction with opioid receptors", "setting": "opioid receptors", "value": "no interaction"},
      {"measurement": "level of systemic IL-1β after IL-1β stimulation", "setting": "IL-1β challenged mice; data not shown", "value": "also reduced"},
      {"measurement": "level of systemic IL-6 after IL-1β stimulation", "setting": "IL-1β challenged mice; data not shown", "value": "also reduced"},
      {"measurement": "level of systemic MPO after IL-1β stimulation", "setting": "IL-1β challenged mice; data not shown", "value": "also reduced"},
      {"measurement": "IL-6 level in the brain", "setting": "IL-1β challenged mice; [7]", "value": "reduced levels"},
      {"measurement": "myeloperoxidase (MPO) level in the brain", "setting": "IL-1β challenged mice; [7]", "value": "reduced levels"},
      {"measurement": "direct effects on COX-2", "setting": "COX-2", "value": "no direct effects"},
      {"measurement": "LTP impairment in APP/PS1 mice", "setting": "[5]; 1000 mg/kg/day", "value": "rescued"},
      {"measurement": "normalized mean LTP of last 5 minutes of recording", "setting": "[5]; low dose (500 mg/kg/day), N=2, n=8", "value": 1.198},
      {"measurement": "normalized mean LTP of last 5 minutes of recording", "setting": "[5]; medium dose (1000 mg/kg/day), N=1, n=7", "value": 1.469},
      {"measurement": "LTP deficit in APP/PS1 mice", "setting": "[5]; low dose, 500 mg/kg/day", "value": "not able to improve"},
      {"measurement": "escape latency (time to reach the hidden platform)", "setting": "APP/PS1 mice [6]; 500 mg/kg/day, day 5, N=5, APP/PS1 control food 42.04±6.89, wildtype 23.59±4.08", "value": "37.31 ± 4.96", "unit": "s"},
      {"measurement": "preference for the target quadrant (TQ) over non-target quadrants (NT), probe trial", "setting": "APP/PS1 mice [6]; 500 mg/kg/day, day 9", "value": "no preference"},
      {"measurement": "escape latency (time to reach the hidden platform)", "setting": "APP/PS1 mice [6]; 1000 mg/kg, day 5, N=6, p value=0.021, APP/PS1 control food 42.04±6.89, wildtype 23.59±4.08", "value": "21.30 ± 3.19", "unit": "s"},
      {"measurement": "preference for the target quadrant (TQ) over non-target quadrants (NT), probe trial", "setting": "APP/PS1 mice [6]; 1000 mg/kg/day, day 9, p value=0.0001", "value": "significant preference"},
      {"measurement": "concentration range in which PDE4 enzyme was inhibited", "setting": "PDE4 enzyme; dose-responsive, subsequent studies not conclusive", "value": "≥ 100", "unit": "µM"},
      {"measurement": "concentration range in which PDE4 enzyme was inhibited", "setting": "PDE4 enzyme; same bound given in μg/mL", "value": "≥ 13", "unit": "µg/mL"},
      {"measurement": "direct effects on COX-1", "setting": "COX-1", "value": "no direct effects"},
      {"measurement": "inhibition of pro-IL-18", "setting": "pro-IL-18", "value": "no inhibition"}
    ]}
  ]
}
